Data published in ChEMBL document CHEMBL4304800, “C4-Phenylthio β-lactams: Effect of the chirality of the β-lactam ring on antimicrobial activity” (2019).
In brackets after ≈: the same amount, converted by molar mass. Activity calls are given as the source filed them. The rule behind the calls is not given here.

Legend:
[1] = test system: Moraxella catarrhalis; experiment: Bactericidal activity against serine beta-lactamase producing Moraxella catarrhalis incubated in MH broth for 24 to 48 hrs by microbroth dilution method; type: functional
[2] = test system: Mycobacterium tuberculosis; experiment: Antitubercular activity against serine beta-lactamase producing Mycobacterium tuberculosis H37Rv after 14 days in presence of middlebrook 7H9/BSA medium by eleven fold serial dilution method; type: functional; conditions: 336 h
[3] = test system: Mycobacterium tuberculosis; experiment: Antitubercular activity against serine beta-lactamase producing Mycobacterium tuberculosis H37Rv after 14 days in presence of GAST/Fe medium by eleven fold serial dilution method; type: functional; conditions: 336 h
[4] = test system: Mycobacterium tuberculosis; experiment: (§1) Bactericidal activity against serine beta-lactamase producing Mycobacterium tuberculosis H37Rv assessed as induction of microbial kill at MIC preincubated in middlebrook 7H9 medium for 7 days and further incubated in middlebrook 7H11/BSA supplemented with OADC for 3 weeks by serial dilution based colony counting method; type: functional
[5] = test system: Mycobacterium tuberculosis; experiment: as §1, with “reduction in” for “induction of”, “cell number” for “kill”; type: functional, organism-based
[6] = test system: Mycobacterium tuberculosis; experiment: Antitubercular activity against clinical drug sensitive Mycobacterium tuberculosis K14b00DS after 14 days in presence of middlebrook 7H9/BSA medium by eleven fold serial dilution method; type: functional; conditions: 336 h

Row | SMILES | MBC [1] | MIC [1] | MIC99 [2] | MIC99 [3] | LCK [4] | Activity [5] | MIC [6]
1 | C[C@H](NC(=O)N1C(=O)C[C@@H]1Sc1ccc(F)c(Cl)c1)c1ccccc1 | 25 µg/mL (≈ 66 µM) | 25 µg/mL (≈ 66 µM) | 25 µg/mL | 1.5 µg/mL |  |  | 
2 | COc1ccccc1S[C@@H]1CC(=O)N1C(=O)N[C@H](C)c1ccccc1 |  | > 200 µg/mL | > 100 µg/mL | 25 µg/mL |  |  | 
3 | C[C@@H](NC(=O)N1C(=O)C[C@@H]1[Se]c1ccccc1)c1ccccc1 | 50 µg/mL (≈ 134 µM) | 25 µg/mL (≈ 67 µM) | 25 µg/mL | 12.5 µg/mL |  |  | 
4 | C[C@@H](NC(=O)N1C(=O)C[C@H]1Sc1ccc(C(F)(F)F)cc1)c1ccccc1 | 200 µg/mL (≈ 507 µM) | 200 µg/mL (≈ 507 µM) | 100 µg/mL |  |  |  | 
5 | C[C@H](NC(=O)N1C(=O)C[C@H]1Sc1c(F)c(F)c(F)c(F)c1F)c1ccccc1 | 50 µg/mL (≈ 120 µM) | 50 µg/mL (≈ 120 µM) | 100 µg/mL | 0.7 µg/mL | <3 | Active | 
6 | O=C1CC(Sc2ccc(F)cc2F)N1C(=O)NCc1ccccc1 (racemic) | 1.6 µg/mL (≈ 4.59 µM) | 1.6 µg/mL (≈ 4.59 µM) | 100 µg/mL |  |  |  | 
7 | C[C@@H](NC(=O)N1C(=O)C[C@H]1Sc1ccc(F)cc1Cl)c1ccccc1 | 25 µg/mL (≈ 66 µM) | 25 µg/mL (≈ 66 µM) | 50 µg/mL | 1.5 µg/mL |  |  | 
8 | COc1ccc(SC2CC(=O)N2C(=O)NCc2ccccc2)cc1 (racemic) |  |  | 125 µg/mL |  |  |  | 
9 | COc1ccccc1SC1CC(=O)N1 (racemic) |  |  | > 250 µg/mL |  |  |  | 
10 | O=C1CC([Se]c2ccccc2)N1C(=O)NCc1ccccc1 (racemic) | 12.5 µg/mL (≈ 34.8 µM) | 12.5 µg/mL (≈ 34.8 µM) | 25 µg/mL |  |  |  | 
11 | C[C@@H](NC(=O)N1C(=O)C[C@H]1Sc1ccc(F)c(F)c1)c1ccccc1 | 12.5 µg/mL (≈ 34.5 µM) | 12.5 µg/mL (≈ 34.5 µM) | ≥ 100 µg/mL | 0.7 µg/mL |  |  | 
12 | C[C@H](NC(=O)N1C(=O)C[C@H]1Sc1ccccc1F)c1ccccc1 | 50 µg/mL (≈ 145 µM) | 50 µg/mL (≈ 145 µM) | 50 µg/mL | 12.5 µg/mL |  |  | 
13 | COc1ccc(SC2CC(=O)N2)cc1 (racemic) | 200 µg/mL (≈ 956 µM) | > 200 µg/mL | 100 µg/mL |  |  |  | 
14 | O=C1CC(Sc2ccc(F)cc2)N1 (racemic) |  |  | > 100 µg/mL |  |  |  | 
15 | COc1ccc(S[C@@H]2CC(=O)N2C(=O)N[C@@H](C)c2ccccc2)cc1 | 50 µg/mL (≈ 140 µM) | 50 µg/mL (≈ 140 µM) | 50 µg/mL | 25 µg/mL |  |  | 
16 | O=C1CC(Sc2ccc(F)cc2)N1C(=O)NCc1ccccc1 (racemic) |  |  | 6.2 µg/mL |  |  |  | 
17 | C[C@@H](NC(=O)N1C(=O)C[C@H]1Sc1ccc(F)cc1)c1ccccc1 | 25 µg/mL (≈ 72.6 µM) | 25 µg/mL (≈ 72.6 µM) | 50 µg/mL | 25 µg/mL |  |  | 
18 | O=C1CC(Sc2ccccc2F)N1 (racemic) |  |  | 100 µg/mL |  |  |  | 
19 | C[C@H](NC(=O)N1C(=O)C[C@@H]1Sc1ccc(F)cc1Cl)c1ccccc1 | 50 µg/mL (≈ 132 µM) | 50 µg/mL (≈ 132 µM) | 25 µg/mL | 1.5 µg/mL |  |  | 
20 | C[C@H](NC(=O)N1C(=O)C[C@@H]1Sc1ccc(F)cc1F)c1ccccc1 | 12.5 µg/mL (≈ 34.5 µM) | 12.5 µg/mL (≈ 34.5 µM) | 12.5 µg/mL | 0.7 µg/mL |  |  | 
21 | O=C1CC(Sc2ccc(F)cc2F)N1 (racemic) | 3.1 µg/mL (≈ 14.4 µM) |  | 3.1 µg/mL |  |  |  | 
22 | COc1ccc(S[C@H]2CC(=O)N2C(=O)N[C@H](C)c2ccccc2)cc1 | 50 µg/mL (≈ 140 µM) | 50 µg/mL (≈ 140 µM) | 100 µg/mL | 25 µg/mL |  |  | 
23 | C[C@H](NC(=O)N1C(=O)C[C@@H]1Sc1ccc(C(F)(F)F)cc1)c1ccccc1 | 200 µg/mL (≈ 507 µM) | 200 µg/mL (≈ 507 µM) | 25 µg/mL |  |  |  | 25 µg/mL
24 | C[C@@H](NC(=O)N1C(=O)C[C@H]1Sc1ccccc1F)c1ccccc1 | 25 µg/mL (≈ 72.6 µM) | 12.5 µg/mL (≈ 36.3 µM) | 25 µg/mL | 12.5 µg/mL |  |  | 
25 | C[C@@H](NC(=O)N1C(=O)C[C@@H]1Sc1ccc(F)cc1Cl)c1ccccc1 | 25 µg/mL (≈ 66 µM) | 25 µg/mL (≈ 66 µM) | 25 µg/mL | 0.7 µg/mL |  |  | 
26 | O=C1CC([Se]c2ccccc2)N1 (racemic) | 6.2 µg/mL (≈ 27.4 µM) | 6.2 µg/mL (≈ 27.4 µM) | 25 µg/mL |  |  |  | 
27 | O=C1CC(Sc2c(F)c(F)c(F)c(F)c2F)N1 (racemic) |  |  | > 100 µg/mL |  |  |  | 
28 | C[C@H](NC(=O)N1C(=O)C[C@H]1Sc1ccc(F)cc1F)c1ccccc1 | 50 µg/mL (≈ 138 µM) | 50 µg/mL (≈ 138 µM) | 50 µg/mL | 0.7 µg/mL |  |  | 50 µg/mL
29 | CC[C@H]1OC(=O)[C@H](C)[C@@H](O[C@H]2C[C@@](C)(OC)[C@@H](O)[C@H](C)O2)[C@H](C)[C@@H](O[C@@H]2O[C@H](C)C[C@H](N(C)C)[C@H]2O)[C@](C)(O)C[C@@H](C)CN(C)[C@H](C)[C@@H](O)[C@]1(C)O [AZITHROMYCIN] | 0.063 µg/mL (≈ 0.0841 µM) | 0.125 µg/mL (≈ 0.167 µM) |  |  |  |  | 
30 | O=C1CC(Sc2ccc(F)cc2Cl)N1 (racemic) |  |  | 25 µg/mL |  |  |  | 
